In ChEMBL document CHEMBL5528028, “Discovery of benzopyridone cyanoacetates as new type of potential broad-spectrum antibacterial candidates” (Eur J Med Chem, 2024):
≈ marks a conversion by molar mass, not a printed value. Calls of active or inactive are those of the source. The rule behind the calls is not given here.

Assays:
Staphylococcus aureus [1] = assay: Antibacterial activity against methicillin-resistant Staphylococcus aureus assessed growth inhibition by micro broth dilution method; assay type: functional
Staphylococcus aureus [2] = assay: Antibacterial activity against Staphylococcus aureus assessed growth inhibition by micro broth dilution method; assay type: functional
Staphylococcus aureus [3] = assay: Antibacterial activity against Staphylococcus aureus ATCC 25923 assessed growth inhibition by micro broth dilution method; assay type: functional
Staphylococcus aureus [4] = assay: Antibacterial activity against Staphylococcus aureus ATCC 29213 assessed growth inhibition by micro broth dilution method; assay type: functional
Enterococcus faecalis = assay: Antibacterial activity against Enterococcus faecalis assessed growth inhibition by micro broth dilution method; assay type: functional
Klebsiella pneumoniae [5] = assay: Antibacterial activity against Klebsiella pneumonia assessed growth inhibition by micro broth dilution method; assay type: functional
Escherichia coli [6] = assay: Antibacterial activity against Escherichia coli assessed growth inhibition by micro broth dilution method; assay type: functional
Escherichia coli [7] = assay: Antibacterial activity against Escherichia coli ATCC 25922 assessed growth inhibition by micro broth dilution method; assay type: functional
Pseudomonas aeruginosa [8] = assay: Antibacterial activity against Pseudomonas aeruginosa assessed growth inhibition by micro broth dilution method; assay type: functional
Pseudomonas aeruginosa [9] = assay: Antibacterial activity against Pseudomonas aeruginosa ATCC 27853 assessed growth inhibition by micro broth dilution method; assay type: functional
Acinetobacter baumannii = assay: Antibacterial activity against Acinetobacter baumannii assessed growth inhibition by micro broth dilution method; assay type: functional
Staphylococcus aureus [10] = assay: Bactericidal activity against Staphylococcus aureus ATCC 29213 assessed as time dependent killing at 4 times of MIC measured at 8 hrs; assay type: functional, organism-based
Klebsiella pneumoniae [11] = assay: Bactericidal activity against Klebsiella pneumonia assessed as time dependent killing at 4 times of MIC measured at 8 hrs; assay type: functional, organism-based
Erythrocyte = assay: Hemolytic activity in human RBC incubated measured upto 128 ug/ml; assay type: toxicity, cell-based; details: dose < 128 µg/ml
Cell membrane [12] = assay: Induction of outer membrane permeability in Klebsiella pneumonia assessed as increase in fluorescence intensity at 2 times of MIC by N-phenyl naphthylamine (NPN) dye based assay; assay type: cell membranes; details: Klebsiella pneumoniae
Cell membrane [13] = assay: Induction of cytoplasmic membrane depolarization in Staphylococcus aureus ATCC 29213 assessed as increase in fluorescence intensity at 2 times of MIC measured upto 40 mins by DiSC35 dye based fluorescence method; assay type: cell membranes
Cell membrane [14] = assay: Induction of cytoplasmic membrane depolarization in Klebsiella pneumonia assessed as increase in fluorescence intensity at 2 times of MIC measured upto 40 mins by DiSC35 dye based fluorescence method; assay type: cell membranes; details: Klebsiella pneumoniae, DISRUPTING AGENT
Cell membrane [15] = assay: Induction of disruption of membrane integrity in Staphylococcus aureus ATCC 29213 assessed as leakage of intracellular proteins by Acid Blue 90 based assay; assay type: cell membranes
Cell membrane [16] = assay: Induction of disruption of membrane integrity in Klebsiella pneumonia assessed as leakage of intracellular proteins by Acid Blue 90 based assay; assay type: cell membranes; details: Klebsiella pneumoniae
Staphylococcus aureus [17] = assay: Induction of ROS generation in Staphylococcus aureus ATCC 29213 assessed as increase in fluorescence intensity by DCFH-DA based microscopic analysis; assay type: functional, organism-based
Klebsiella pneumoniae [18] = assay: Induction of ROS generation in Klebsiella pneumonia assessed as increase in fluorescence intensity by DCFH-DA based microscopic analysis; assay type: functional, organism-based
Staphylococcus aureus [19] = assay: Induction of ROS generation in Staphylococcus aureus ATCC 29213 assessed as loss of GSH activity by Ellmans method; assay type: functional, organism-based
Klebsiella pneumoniae [20] = assay: Induction of ROS generation in Klebsiella pneumonia assessed as loss of GSH activity by Ellmans method; assay type: functional, organism-based
Staphylococcus aureus [21] = assay: Antibacterial activity against Staphylococcus aureus ATCC 29213 assessed as decrease in relative metabolic activity at 4 times of MIC by Alamar Blue assays; assay type: functional, organism-based
Klebsiella pneumoniae [22] = assay: Antibacterial activity against Klebsiella pneumonia assessed as decrease in relative metabolic activity at 4 times of MIC by Alamar Blue assays; assay type: functional, organism-based
[23] = Thermodynamic solubility of the compound in water; assay type: physicochemical; details: read-out: Therm_solubility
Staphylococcus aureus [24] = assay: Anti-biofilm activity against Staphylococcus aureus ATCC 29213 assessed as relative biofilm clearance rate at 8 times of MIC by crystal violet staining based assay; assay type: functional
Klebsiella pneumoniae [25] = assay: Anti-biofilm activity against Klebsiella pneumonia assessed as relative biofilm clearance rate at 8 times of MIC by crystal violet staining based assay; assay type: functional
[26] = Cytotoxicity against human NOK cells assessed as cell viability at 8 ug/ml; assay type: toxicity, cell-based; details: nok-si, dose 8 µg/ml
[27] = Cytotoxicity against human FHC cells assessed as cell viability at 8 ug/ml; assay type: toxicity, cell-based; details: at 8 µg/mL, read-out: Activity

Compound | MIC (Staphylococcus aureus [1]) [µg/mL] | MIC (Staphylococcus aureus [2]) [µg/mL] | MIC (Staphylococcus aureus [3]) [µg/mL] | MIC (Staphylococcus aureus [4]) [µg/mL] | MIC (Enterococcus faecalis) [µg/mL] | MIC (Klebsiella pneumoniae [5]) [µg/mL] | MIC (Escherichia coli [6]) [µg/mL] | MIC (Escherichia coli [7]) [µg/mL] | MIC (Pseudomonas aeruginosa [8]) [µg/mL] | MIC (Pseudomonas aeruginosa [9]) [µg/mL] | MIC (Acinetobacter baumannii) [µg/mL] | also measured
CCOC(=O)C(C#N)c1cc2c(cc1F)c(=O)c(C(=O)O)cn2C1CC1 (centres undefined) | 2 (≈ 5.58 µM) | 0.5 (≈ 1.4 µM) | 8 (≈ 22.3 µM) | 0.5 (≈ 1.4 µM) | 64 (≈ 179 µM) | 0.25 (≈ 0.698 µM) | 32 (≈ 89.3 µM) | 0.5 (≈ 1.4 µM) | 16 (≈ 44.7 µM) | 4 (≈ 11.2 µM) | 1 (≈ 2.79 µM) | Activity (Staphylococcus aureus [10]): Active; Activity (Klebsiella pneumoniae [11]): Active; Activity (Erythrocyte): Non-Toxic; Activity (Cell membrane [12]): Dose-Dependent Effect; Activity (Cell membrane [13]): Active; Activity (Cell membrane [14]): Active; Activity (Cell membrane [15]): Dose-Dependent Effect; Activity (Cell membrane [16]): Dose-Dependent Effect; Activity (Staphylococcus aureus [17]): Dose-Dependent Effect; Activity (Klebsiella pneumoniae [18]): Dose-Dependent Effect; Activity (Staphylococcus aureus [19]): Dose-Dependent Effect; Activity (Klebsiella pneumoniae [20]): Dose-Dependent Effect; Activity (Staphylococcus aureus [21]): Active; Activity (Klebsiella pneumoniae [22]): Active
CCOC(=O)c1cn(Cc2ccc(Cl)c(Cl)c2)c2cc([C-](C#N)C(=O)OCC)c(F)cc2c1=O.[Na+] (centres undefined) | 8 | 64 | 0.25 | 0.25 | 1 | 0.25 | 0.25 | 0.25 | 4 | 0.5 | 1 | solubility thermodynamic [23]: 97.3 µg/mL; Activity (Staphylococcus aureus [24]): 70%; Activity (Klebsiella pneumoniae [25]): 70%
CCOC(=O)c1cn(Cc2ccc(Cl)cc2Cl)c2cc([C-](C#N)C(=O)OCC)c(F)cc2c1=O.[Na+] (centres undefined) | 16 | 32 | 0.25 | 0.25 | 1 | 0.25 | 0.5 | 0.25 | 4 | 0.5 | 2 | Activity (Erythrocyte): Non-Toxic; Activity [26]: Non-Toxic; viability at 8 ug/ml [27]: 70%
CCCCCn1cc(C(=O)OCC)c(=O)c2cc(F)c([C-](C#N)C(=O)OCC)cc21.[Na+] (centres undefined) | 32 | 32 | 1 | 4 | 4 | 4 | 4 | 1 | 4 | 4 | 4 | 
CCOC(=O)C(C#N)c1c(F)cc2c(=O)c(C(=O)O)cn(CC)c2c1F (centres undefined) | 16 (≈ 43.9 µM) | 16 (≈ 43.9 µM) | 32 (≈ 87.8 µM) | 32 (≈ 87.8 µM) | 128 (≈ 351 µM) | 4 (≈ 11 µM) | 64 (≈ 176 µM) | 2 (≈ 5.49 µM) | 64 (≈ 176 µM) | 4 (≈ 11 µM) | 0.5 (≈ 1.37 µM) | 
CCOC(=O)c1cn(Cc2ccc(Cl)cc2)c2cc([C-](C#N)C(=O)OCC)c(F)cc2c1=O.[Na+] (centres undefined) | 64 | 64 | 1 | 2 | 1 | 2 | 0.5 | 1 | 16 | 2 | 64 | 
CCOC(=O)c1cn(CC(=O)N2CCN(C(=O)OC(C)(C)C)CC2)c2cc([C-](C#N)C(=O)OCC)c(F)cc2c1=O.[Na+] (centres undefined) | 32 | 256 | 16 | 32 | 64 | 128 | 16 | 16 | 64 | 4 | 32 | 
CCCn1cc(C(=O)OCC)c(=O)c2cc(F)c(F)cc21 | 256 (≈ 867 µM) | 64 (≈ 217 µM) | 256 (≈ 867 µM) | 128 (≈ 433 µM) | 256 (≈ 867 µM) | 64 (≈ 217 µM) | 32 (≈ 108 µM) | 128 (≈ 433 µM) | 128 (≈ 433 µM) | 256 (≈ 867 µM) | 256 (≈ 867 µM) | 
CCn1cc(C(=O)O)c(=O)c2cc(F)c(N3CCNCC3)cc21 [NORFLOXACIN] | 8 (≈ 25.1 µM) | 8 (≈ 25.1 µM) | 8 (≈ 25.1 µM) | 4 (≈ 12.5 µM) | 8 (≈ 25.1 µM) | 8 (≈ 25.1 µM) | 4 (≈ 12.5 µM) | 4 (≈ 12.5 µM) | 8 (≈ 25.1 µM) | 8 (≈ 25.1 µM) | 2 (≈ 6.26 µM) | 
CCOC(=O)c1cn(CC)c2c(F)c(F)c(F)cc2c1=O | 128 (≈ 428 µM) | 32 (≈ 107 µM) | 64 (≈ 214 µM) | 128 (≈ 428 µM) | 128 (≈ 428 µM) | 32 (≈ 107 µM) | 8 (≈ 26.7 µM) | 64 (≈ 214 µM) | 32 (≈ 107 µM) | 256 (≈ 855 µM) | 32 (≈ 107 µM) | 
CCOC(=O)c1cn(Cc2ccc(Cl)c(Cl)c2)c2cc(F)c(F)cc2c1=O | 256 (≈ 621 µM) | 16 (≈ 38.8 µM) | 256 (≈ 621 µM) | 256 (≈ 621 µM) | 128 (≈ 311 µM) | 0.5 (≈ 1.21 µM) | 8 (≈ 19.4 µM) | 2 (≈ 4.85 µM) | 32 (≈ 77.6 µM) | 64 (≈ 155 µM) | 256 (≈ 621 µM) | 
CCOC(=O)C(C#N)c1cc2c(cc1F)c(=O)c(C(=O)O)cn2Cc1ccc(Cl)c(Cl)c1 (centres undefined) | 32 (≈ 67 µM) | 64 (≈ 134 µM) | 32 (≈ 67 µM) | 64 (≈ 134 µM) | 128 (≈ 268 µM) | 4 (≈ 8.38 µM) | 128 (≈ 268 µM) | 0.5 (≈ 1.05 µM) | 16 (≈ 33.5 µM) | 4 (≈ 8.38 µM) | 16 (≈ 33.5 µM) | 
CCOC(=O)c1cn(C)c2cc([C-](C#N)C(=O)OCC)c(F)cc2c1=O.[Na+] (centres undefined) | 64 | 128 | 1 | 64 | 32 | 32 | 32 | 16 | 32 | 32 | 32 | 
CCOC(=O)c1cn(Cc2ccc(Cl)cc2)c2cc(F)c(F)cc2c1=O | 256 (≈ 678 µM) | 64 (≈ 169 µM) | 256 (≈ 678 µM) | 256 (≈ 678 µM) | 64 (≈ 169 µM) | 32 (≈ 84.7 µM) | 1 (≈ 2.65 µM) | 128 (≈ 339 µM) | 256 (≈ 678 µM) | 256 (≈ 678 µM) | 4 (≈ 10.6 µM) | 
